Paper PMC11494501, “AlphaFold Ensemble Competition Screens Enable Peptide Binder Design with Single-Residue Sensitivity” (ACS Chemical Biology, 2024)
Residues, ends and D or L forms follow the SMILES beside them. *: point of attachment. FITC = O=C1OC2(c3ccc(O)cc3Oc3cc(O)ccc32)c2ccc(NC(=S)*)cc21; βAla = NCCC(=O)O

molecular target: T1, Ub (Homo sapiens, UniProt P0CG48); test: not given; conditions: read-out: dissociation constant of Ub:UIM-1 complex; cited from earlier work
From the text: We selected the UIM-1 sequence as an experimental model system because it is well characterized, having both the reported dissociation constant and NMR structure (pdb: 1q0w, Figure 1a,c). […] The UIM-1 sequence binds to Ub primarily through a series of hydrophobic contacts around the characteristic “AxxxS” UIM pattern of alanine and serine residues spaced four positions apart. Further, polar and salt bridge contacts may also stabilize the complex. […] The peptide concentration was mainta ...

| Molecule | Kd [µM] |
| --- | --- |
| UIM-1: first UIM of the Vps27 protein; literature Kd from a slightly longer variant of the peptide | 277 |

molecular target: T1, Ub; test: Fluorescence polarization (FP) titration of labelled peptide against Ub; conditions: 1c (C-terminal Lys side-chain label) relative to 1a (N-terminal label), from FP Kd

| Molecule | reduction in binding energy [kJ mol^–1] |
| --- | --- |
| CC[C@H](C)[C@H](NC(=O)[C@H](C)NC(=O)[C@H](CCCCN)NC(=O)[C@H](CCCNC(=N)N)NC(=O)[C@@H](NC(=O)[C@H](CC(C)C)NC(=O)[C@H](CCC(=O)O)NC(=O)[C@H](CCC(=O)O)NC(=O)[C@H](CCC(=O)O)NC(=O)[C@H](CC(=O)O)NC(=O)[C@H](CCC(=O)O)NC(=O)CNC(C)=O)[C@@H](C)CC)C(=O)N[C@@H](CCC(=O)O)C(=O)N[C@@H](CC(C)C)C(=O)N[C@@H](CO)C(=O)N[C@@H](CC(C)C)C(=O)N[C@@H](CCCCN)C(=O)N[C@@H](CCC(=O)O)C(=O)N[C@@H](CO)C(=O)NCC(=O)N[C@@H](CCCCNC(=S)Nc1ccc2c(c1)C(=O)OC21c2ccc(O)cc2Oc2cc(O)ccc21)C(N)=O [1c] (Ac-GEDEEELIRKAIELSLKESGK(FITC)-NH2) | 6.5 |

same assay, conditions: relative to 1a (UIM-1), from FP Kd; positive = weaker binding

| Molecule | ΔΔG for binding Ub [kcal/mol] |
| --- | --- |
| CC[C@H](C)[C@H](NC(=O)[C@H](C)NC(=O)[C@H](CCCCN)NC(=O)[C@H](CCCNC(=N)N)NC(=O)[C@@H](NC(=O)[C@H](CC(C)C)NC(=O)[C@H](CCC(=O)O)NC(=O)[C@H](CCC(=O)O)NC(=O)[C@H](CCC(=O)O)NC(=O)[C@H](CC(=O)O)NC(=O)[C@H](CCC(=O)O)NC(=O)CNC(=O)CCNC(=S)Nc1ccc2c(c1)C(=O)OC21c2ccc(O)cc2Oc2cc(O)ccc21)[C@@H](C)CC)C(=O)N[C@@H](CCC(=O)O)C(=O)N[C@@H](CC(C)C)C(=O)N[C@@H](CO)C(=O)N[C@@H](CCC(=O)O)C(=O)N[C@@H](CCCCN)C(=O)N[C@@H](CCC(=O)O)C(=O)N[C@@H](CO)C(=O)NCC(N)=O [11a] ({FITC-βAla}-GEDEEELIRKAIELSEKESG-NH2) | 1.08 |
| CC[C@H](C)[C@H](NC(=O)[C@H](C)NC(=O)[C@H](CCCCN)NC(=O)[C@H](CCCNC(=N)N)NC(=O)[C@H](C)NC(=O)[C@H](CC(C)C)NC(=O)[C@H](CCC(=O)O)NC(=O)[C@H](CCC(=O)O)NC(=O)[C@H](CCC(=O)O)NC(=O)[C@H](CC(=O)O)NC(=O)[C@H](CCC(=O)O)NC(=O)CNC(=O)CCNC(=S)Nc1ccc2c(c1)C(=O)OC21c2ccc(O)cc2Oc2cc(O)ccc21)C(=O)N[C@@H](CCC(=O)O)C(=O)N[C@@H](CC(C)C)C(=O)N[C@@H](CO)C(=O)N[C@@H](CC(C)C)C(=O)N[C@@H](CCCCN)C(=O)N[C@@H](CCC(=O)O)C(=O)N[C@@H](CO)C(=O)NCC(N)=O [3a] ({FITC-βAla}-GEDEEELARKAIELSLKESG-NH2) | 1.89 |
| CC[C@H](C)[C@H](NC(=O)[C@H](C)NC(=O)[C@H](CCCCN)NC(=O)[C@H](CCCNC(=N)N)NC(=O)[C@@H](NC(=O)[C@H](CC(C)C)NC(=O)[C@H](CCC(=O)O)NC(=O)[C@H](CCC(=O)O)NC(=O)[C@H](CCC(=O)O)NC(=O)[C@H](CC(=O)O)NC(=O)[C@H](CCC(=O)O)NC(=O)CNC(=O)CCNC(=S)Nc1ccc2c(c1)C(=O)OC21c2ccc(O)cc2Oc2cc(O)ccc21)[C@@H](C)CC)C(=O)N[C@@H](CCC(=O)O)C(=O)N[C@@H](CCC(=O)O)C(=O)N[C@@H](CO)C(=O)N[C@@H](CC(C)C)C(=O)N[C@@H](CCCCN)C(=O)N[C@@H](CCC(=O)O)C(=O)N[C@@H](CO)C(=O)NCC(N)=O [10a] ({FITC-βAla}-GEDEEELIRKAIEESLKESG-NH2) | -0.072 |
| CC[C@H](C)[C@H](NC(=O)[C@H](C)NC(=O)[C@H](CCCCN)NC(=O)[C@H](CCCNC(=N)N)NC(=O)[C@H](Cc1ccccc1)NC(=O)[C@H](CC(C)C)NC(=O)[C@H](CCC(=O)O)NC(=O)[C@H](CCC(=O)O)NC(=O)[C@H](CCC(=O)O)NC(=O)[C@H](CC(=O)O)NC(=O)[C@H](CCC(=O)O)NC(=O)CNC(=O)CCNC(=S)Nc1ccc2c(c1)C(=O)OC21c2ccc(O)cc2Oc2cc(O)ccc21)C(=O)N[C@@H](CCC(=O)O)C(=O)N[C@@H](CC(C)C)C(=O)N[C@@H](CO)C(=O)N[C@@H](CC(C)C)C(=O)N[C@@H](CCCCN)C(=O)N[C@@H](CCC(=O)O)C(=O)N[C@@H](CO)C(=O)NCC(N)=O [8a] ({FITC-βAla}-GEDEEELFRKAIELSLKESG-NH2) | 0.502 |
| CC[C@H](C)[C@H](NC(=O)[C@H](C)NC(=O)[C@H](CCCCN)NC(=O)[C@H](CCCNC(=N)N)NC(=O)[C@@H](NC(=O)[C@H](CC(C)C)NC(=O)[C@H](CCC(=O)O)NC(=O)[C@H](CCC(=O)O)NC(=O)[C@H](CCC(=O)O)NC(=O)[C@H](CC(=O)O)NC(=O)[C@H](CCC(=O)O)NC(=O)CNC(=O)CCNC(=S)Nc1ccc2c(c1)C(=O)OC21c2ccc(O)cc2Oc2cc(O)ccc21)[C@@H](C)CC)C(=O)N[C@@H](CCC(=O)O)C(=O)N[C@@H](C)C(=O)N[C@@H](CO)C(=O)N[C@@H](CC(C)C)C(=O)N[C@@H](CCCCN)C(=O)N[C@@H](CCC(=O)O)C(=O)N[C@@H](CO)C(=O)NCC(N)=O [5a] ({FITC-βAla}-GEDEEELIRKAIEASLKESG-NH2) | 0.239 |
| CC[C@H](C)[C@H](NC(=O)[C@H](C)NC(=O)[C@H](CCCCN)NC(=O)[C@H](CCCNC(=N)N)NC(=O)[C@@H](NC(=O)[C@H](CCC(=O)O)NC(=O)[C@H](CCC(=O)O)NC(=O)[C@H](CCC(=O)O)NC(=O)[C@H](CCC(=O)O)NC(=O)[C@H](CC(=O)O)NC(=O)[C@H](CCC(=O)O)NC(=O)CNC(=O)CCNC(=S)Nc1ccc2c(c1)C(=O)OC21c2ccc(O)cc2Oc2cc(O)ccc21)[C@@H](C)CC)C(=O)N[C@@H](CCC(=O)O)C(=O)N[C@@H](CC(C)C)C(=O)N[C@@H](CO)C(=O)N[C@@H](CC(C)C)C(=O)N[C@@H](CCCCN)C(=O)N[C@@H](CCC(=O)O)C(=O)N[C@@H](CO)C(=O)NCC(N)=O [7a] ({FITC-βAla}-GEDEEEEIRKAIELSLKESG-NH2) | 0.669 |
| CC[C@H](C)[C@H](NC(=O)[C@H](C)NC(=O)[C@H](CCCCN)NC(=O)[C@H](CCCNC(=N)N)NC(=O)[C@@H](NC(=O)[C@H](CC(C)C)NC(=O)[C@H](CCC(=O)O)NC(=O)[C@H](CCC(=O)O)NC(=O)[C@H](CCC(=O)O)NC(=O)[C@H](CC(=O)O)NC(=O)[C@H](CCC(=O)O)NC(=O)CNC(=O)CCNC(=S)Nc1ccc2c(c1)C(=O)OC21c2ccc(O)cc2Oc2cc(O)ccc21)[C@@H](C)CC)C(=O)N[C@@H](CCC(=O)O)C(=O)N[C@@H](CC(C)C)C(=O)N[C@@H](CO)C(=O)N[C@@H](C)C(=O)N[C@@H](CCCCN)C(=O)N[C@@H](CCC(=O)O)C(=O)N[C@@H](CO)C(=O)NCC(N)=O [6a] ({FITC-βAla}-GEDEEELIRKAIELSAKESG-NH2) | 1.12 |
| CC[C@H](C)[C@H](NC(=O)[C@H](CC(C)C)NC(=O)[C@H](CCC(=O)O)NC(=O)[C@H](CCC(=O)O)NC(=O)[C@H](CCC(=O)O)NC(=O)[C@H](CC(=O)O)NC(=O)[C@H](CCC(=O)O)NC(=O)CNC(=O)CCNC(=S)Nc1ccc2c(c1)C(=O)OC21c2ccc(O)cc2Oc2cc(O)ccc21)C(=O)N[C@@H](CCCNC(=N)N)C(=O)N[C@@H](CCCCN)C(=O)N[C@@H](C)C(=O)N[C@@H](C)C(=O)N[C@@H](CCC(=O)O)C(=O)N[C@@H](CC(C)C)C(=O)N[C@@H](CO)C(=O)N[C@@H](CC(C)C)C(=O)N[C@@H](CCCCN)C(=O)N[C@@H](CCC(=O)O)C(=O)N[C@@H](CO)C(=O)NCC(N)=O [4a] ({FITC-βAla}-GEDEEELIRKAAELSLKESG-NH2) | 1.67 |
| CC[C@H](C)[C@H](NC(=O)[C@H](CC(C)C)NC(=O)[C@H](CCC(=O)O)NC(=O)[C@H](CCC(=O)O)NC(=O)[C@H](CCC(=O)O)NC(=O)[C@H](CC(=O)O)NC(=O)[C@H](CCC(=O)O)NC(=O)CNC(=O)CCNC(=S)Nc1ccc2c(c1)C(=O)OC21c2ccc(O)cc2Oc2cc(O)ccc21)C(=O)N[C@@H](CCCNC(=N)N)C(=O)N[C@@H](CCCCN)C(=O)N[C@@H](C)C(=O)N[C@@H](CC(C)C)C(=O)N[C@@H](CCC(=O)O)C(=O)N[C@@H](CC(C)C)C(=O)N[C@@H](CO)C(=O)N[C@@H](CC(C)C)C(=O)N[C@@H](CCCCN)C(=O)N[C@@H](CCC(=O)O)C(=O)N[C@@H](CO)C(=O)NCC(N)=O [9a] ({FITC-βAla}-GEDEEELIRKALELSLKESG-NH2) | 0.693 |

same assay, conditions: relative to 1a, from FP Kd

| Molecule | additional binding energy [kJ mol^–1] |
| --- | --- |
| CC[C@H](C)[C@H](NC(=O)[C@H](C)NC(=O)[C@H](CCCCN)NC(=O)[C@H](CCCNC(=N)N)NC(=O)[C@@H](NC(=O)[C@H](CC(C)C)NC(=O)[C@H](CCC(=O)O)NC(=O)[C@H](CCC(=O)O)NC(=O)[C@H](CCC(=O)O)NC(=O)[C@H](CC(=O)O)NC(=O)[C@H](CCC(=O)O)NC(=O)CNC(=O)CCNC(=S)Nc1ccc2c(c1)C(=O)OC21c2ccc(O)cc2Oc2cc(O)ccc21)[C@@H](C)CC)C(=O)N[C@@H](CCC(=O)O)C(=O)N[C@@H](CCC(=O)O)C(=O)N[C@@H](CO)C(=O)N[C@@H](CC(C)C)C(=O)N[C@@H](CCCCN)C(=O)N[C@@H](CCC(=O)O)C(=O)N[C@@H](CO)C(=O)NCC(N)=O [10a] ({FITC-βAla}-GEDEEELIRKAIEESLKESG-NH2) | 0.3 |
